Results from BindingDB's records for doi:10.1016/j.bmcl.2006.09.059 (Seoul National University, 2006).

Biological target: Transient receptor potential cation channel subfamily V member 1 (Rattus norvegicus, UniProt O35433)
Assay: Agonist activity at rat TRPV1 expressed in CHO cells assessed as maximal calcium uptake

Chain of Transient receptor potential cation channel subfamily V member 1 (O35433 whole entry): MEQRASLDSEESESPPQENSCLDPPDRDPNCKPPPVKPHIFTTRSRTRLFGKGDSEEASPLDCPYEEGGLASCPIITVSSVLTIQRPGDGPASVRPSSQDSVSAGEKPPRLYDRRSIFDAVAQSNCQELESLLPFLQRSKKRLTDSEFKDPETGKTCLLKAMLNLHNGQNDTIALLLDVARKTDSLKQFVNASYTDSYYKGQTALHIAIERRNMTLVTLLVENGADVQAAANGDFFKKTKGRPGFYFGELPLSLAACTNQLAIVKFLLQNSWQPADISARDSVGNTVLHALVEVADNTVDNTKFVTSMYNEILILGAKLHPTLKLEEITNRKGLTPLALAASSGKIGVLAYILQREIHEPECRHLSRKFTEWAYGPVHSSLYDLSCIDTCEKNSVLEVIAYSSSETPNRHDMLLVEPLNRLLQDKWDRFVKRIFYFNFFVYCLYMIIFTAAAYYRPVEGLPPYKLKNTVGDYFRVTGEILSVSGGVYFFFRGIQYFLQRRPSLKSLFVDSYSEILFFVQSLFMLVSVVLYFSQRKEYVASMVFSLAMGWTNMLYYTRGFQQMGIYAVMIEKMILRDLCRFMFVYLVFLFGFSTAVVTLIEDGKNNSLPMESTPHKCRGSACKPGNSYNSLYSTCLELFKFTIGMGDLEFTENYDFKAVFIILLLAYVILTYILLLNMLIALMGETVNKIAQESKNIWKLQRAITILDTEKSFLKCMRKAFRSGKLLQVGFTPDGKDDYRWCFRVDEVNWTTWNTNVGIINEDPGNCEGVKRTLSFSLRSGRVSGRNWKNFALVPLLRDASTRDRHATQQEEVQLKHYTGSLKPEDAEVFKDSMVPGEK

## COc1cc(CNC(=S)NC(COC(=O)C(C)(C)C)Cc2ccc(C(C)(C)C)cc2)ccc1O (stereo unspecified) [2-(3-(4-hydroxy-3-methoxybenzyl)thioureido)-3-(4-tert-butylphenyl)propyl pivalate]
  EC50: 5.7 nM
